This is an account of results in PubChem BioAssay (NCI).

Several values for one entry are separate records, joined by “and”; a condition that tells them apart may be missing. Identical values can stand only once.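 Briefly, cells in 96-well plates were exposed to five compound concentrations for 48 h, and endpoints were estimated by linear interpolation. GI50 marks 50% less growth. TGI is the concentration that stops growth completely.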 A value given as a limit tells only on which side of the number the result lay.

Common to all, as to experiment: NCI-60 cell line screen, 48 h
In test [1] the test system is NCI-H460 lung.
Test [2] deals with SW-620 colon.
For test [3], the system named is MALME-3M melanoma.
Test [4] deals with SNB-19 CNS.
The subject of test [5] is HOP-92 NSCLC.
Test [6] has as its system MDA-MB-435.
Test [7] deals with U251 CNS.
In test [8] the test system is MOLT-4 leukemia.
In test [9] the test system is ACHN renal.
Test [10] concerns TK-10 renal.

Take `Cc1nn2c(/C=C3\C(=O)Nc4ccccc43)c(C)nc2s1`: the GI50 was 13.3 µM in test [1]; 8.87 µM in test [2]; over 100 µM in test [3]; 45.7 µM in test [4]; 61 µM in [5]; 2.85 µM in test [6]. Further, the GI50 in test [7] is 71.9 µM; in [8] it was 17.5 µM; in test [9], over 100 µM; in test [10], 88.7 µM. For the same compound, the TGI in test [1], in test [2], in test [3], in [4], in test [5] and in test [6] was over 100 µM throughout. Besides, the TGI in test [7], in [8], in test [9] and in test [10] was over 100 µM throughout.

In the case of `C=C1C[C@@H]2[C@H](CC[C@]3(C)C(=O)CC[C@@H]23)[C@@]2(C)C=CC(=O)C=C12`, the GI50 was 22 µM in test [1]; 34.7 µM in [2]; over 43.9 µM in test [3]; over 58.8 µM in [4]; over 100 µM in [5]; 26.3 µM in test [6]. Moreover, the GI50 in test [7] is 23.5 µM; in test [8], 25.7 µM; in test [9], 23.5 µM; in test [10] it was 48.1 µM. In addition, the TGI in test [1] is over 63.2 µM; in test [2], over 100 µM; in test [3] it was over 73.4 µM; in [4] it was over 100 µM; in [5], over 100 µM; in test [6], over 81.5 µM. Moreover, the TGI in test [7] is over 70.5 µM; in test [8], over 92.6 µM; in [9] it was 54.3 µM; in test [10], over 100 µM.

For the compound `CS(=O)(=O)Nc1cc(-c2ccc3ncnc(Nc4cccc(Cl)c4F)c3c2)cnc1Cl`, the GI50 in [1] was 4.09 µM; in [2], 3.31 µM; in test [3], 1.83 µM; in [4], 2.83 µM; in [5], 0.672 µM; in [6] it was 4.73 µM. The GI50 in [7] was 2.45 µM; in test [8], 2.31 µM; in [9], 4.09 µM; in test [10], 1.77 µM. Besides, the TGI was over 100 µM in test [1]; 37.7 µM in test [2]; 7.66 µM in test [3]; 16.1 µM in test [4]; 5.31 µM in test [5]; 21.9 µM in [6]. Further, the TGI in test [7] is 14.9 µM; in test [8], 8.46 µM; in test [9], over 100 µM; in test [10] it was 8.73 µM.

On to `O=[N+]([O-])c1ccc(NC(=S)N/N=C(\c2ccccc2)c2ccccn2)cc1`, for which the GI50 in test [1] was 1.47 µM; in [2], 0.0303 µM; in [5], 1.32 µM; in test [8], 0.00433 µM; in test [9], 1.34 µM. In addition, the TGI is 3.36 µM and 11.9 µM in test [1]; 1.93 µM and 2.35 µM in test [2]; 3.52 µM in test [3]; 3.12 µM and 2.97 µM in test [4]; 3.39 µM and 2.6 µM in [5]; 3.15 µM and 3.17 µM in test [6]. Besides, the TGI in test [7] is 3 µM and 2.68 µM; in test [8] it was over 20.5 µM; in [9], 2.62 µM and 2.39 µM; in test [10], 2.51 µM.

Take `CN(C)c1ccc(N=C(C#N)c2nc(N)nc(N3CCN(c4ccccc4)CC3)n2)cc1`: the GI50 was 14.7 µM in test [1]; 22.1 µM in [2]; 0.0338 µM in test [3]; over 50 µM in test [4]; 49.8 µM in test [5]; over 43.9 µM in [6]. In addition, the GI50 in [7] is over 35.1 µM; in test [8], over 50 µM; in test [9], 22.3 µM; in test [10] it was over 30.6 µM. For the same compound, the TGI was over 37 µM in [1]; over 50 µM in test [2]; 1.16 µM in test [3]; over 50 µM in [4]; over 50 µM in [5]; over 50 µM in test [6]. Moreover, the TGI in test [7], in test [8], in [9] and in test [10] was over 50 µM throughout.

As for `CCCNc1cccc(-n2ncc3c(N/N=C/c4ccncc4)ncnc32)c1`, the GI50 in [1] was 2.65 µM; in test [2], over 6.13 µM; in test [3] it was over 7.75 µM; in test [4] it was over 25 µM; in test [5], 9.32 µM; in [6], 0.757 µM. The GI50 in test [7] was 17 µM; in test [8] it was over 25 µM; in [9], over 6.92 µM; in test [10], 2.37 µM. Moreover, the TGI in test [1], in test [2], in [3], in test [4], in [5] and in test [6] was over 25 µM in each case. The TGI in [7], in test [8], in test [9] and in test [10] was over 25 µM each time.

In the case of `S=c1[nH]nc(SCc2ccccc2Cl)c2[nH]cnc12`, the TGI in test [1], in test [2], in test [3], in test [4], in test [5] and in test [6] was over 100 µM throughout. For the same compound, the TGI in [7], in test [8], in test [9] and in test [10] was over 100 µM throughout.

With `COc1cc(/C=C/c2cc(/C=C/c3ccc(O)c(OC)c3)[nH]c(=O)n2)ccc1O`, the GI50 in test [1] is 3.12 µM; in test [2], 3.17 µM; in test [3] it was 3.91 µM; in test [4], 3.38 µM; in test [5] it was 2.28 µM; in test [6], 2.72 µM. The GI50 in test [7] is 3.15 µM; in test [8], 2.55 µM; in [9], 8.84 µM; in test [10] it was 6.13 µM. Besides, the TGI in test [1] is 18.5 µM; in test [2], 16.6 µM; in test [3], over 100 µM; in [4] it was over 100 µM; in [5] it was 9.24 µM; in test [6], 18.2 µM. The TGI in test [7] was 13.5 µM; in [8], 11.7 µM; in test [9], over 100 µM; in test [10], 36 µM.
